# “Also recorded” adds a separate entry of the source.
# Experiments:
# Format in all cases: cell-based, rat
# P-ErbB2 = assay: Western blot densitometry of phosphorylated ErbB2 in subconfluent SCs; conditions: NRG1 10 ng/ml 30 min with AG825 (1 μM)
# Description: (§1) FIG. 3: NRG1 stimulates phosphorylation of Sch by PKA. A, C) Subconfluent SC cultures grown on PLL were serum-starved overnight and were stimulated for 30 minutes with NRG1 (10 ng/ml) in the absence and presence of AG825 (1 μM). Western blot analysis was used to determine the levels of phosphorylated and total ErbB2, Sch, and Pak. B, D) Quantification of the western blots of starved (D0.5), NRG1 stimulated (NRG) and NRG1 plus AG825 (N+A) stimulated cultures is shown. E) Subconfluent SCs grown as above were stimulated for 30 minutes with NRG in the presence and absence of PKI 14-22 (50 nM), and with forskolin (FSK; 2 μM) alone. F) Quantification of the Western blots for ErbB2, Sch, and Pak in starved (D0.5) cultures, and in those stimulated with NRG1 (NRG), NRG1 with PKI 14-22 (N+P), and forskolin (FSK) is shown. GAPDH was used as a loading control for all blots. The graphs represent the average fold increase in each condition in three or more experiments. Error bars represent the SEM for each condition. […]
# Primary rat SCs were grown to approximately 60% confluency on PLL coated dishes. […] Following extraction, the SC lysate was measured for protein concentration, and […] of total SC lysate was separated by SDS-PAGE and was transferred to PVDF membranes. […] Bands intensities were quantified and normalized to GAPDH, and to their respective total proteins for phosphorylated forms. […]
# PS518-Sch = assay: Western blot densitometry of Sch-S518 phosphorylation in subconfluent SCs
# Description: FIG. 3: NRG1 stimulates phosphorylation of Sch by PKA. A, C) Subconfluent SC cultures grown on PLL were serum-starved overnight and were stimulated for 30 minutes with NRG1 (10 ng/ml) in the absence and presence of AG825 (1 μM). Western blot analysis was used to determine the levels of phosphorylated and total ErbB2, Sch, and Pak. B, D) Quantification of the western blots of starved (D0.5), NRG1 stimulated (NRG) and NRG1 plus AG825 (N+A) stimulated cultures is shown. E) Subconfluent SCs grown as above were stimulated for 30 minutes with NRG in the presence and absence of PKI 14-22 (50 nM), and with forskolin (FSK; 2 μM) alone. F) Quantification of the Western blots for ErbB2, Sch, and Pak in starved (D0.5) cultures, and in those stimulated with NRG1 (NRG), NRG1 with PKI 14-22 (N+P), and forskolin (FSK) is shown. GAPDH was used as a loading control for all blots. The graphs represent the average fold increase in each condition in three or more experiments. Error bars represent the SEM for each condition. P values are <0.05(*) with respect to starved SCs or as indicated.
# (§2) FIG. 4: Soluble Laminin-1 Stimulates Phosphorylation of Sch. A, C) Subconfluent SC cultures grown on PLL were stimulated with laminin-1 (10 μg/ml) for 30 minutes after overnight serum starvation. Western blot analysis using antibodies specific for the phosphorylated forms of Sch (PS518-Sch) and Pak (P-Pak) and antibodies against total Sch (Sch-C18), Pak, and β1 integrin are shown. B, D). Quantification of Western blots for starved (D0.5) and laminin-1 stimulated (Lam) cultures is shown. The graphs represent the average fold increase in each condition observed in three or more experiments. GAPDH was used as a loading control for all blots. Error bars represent the SEM for each condition. P values are <0.05(*) and <0.01(**).
# Subconfluent SC cultures grown on PLL were serum-starved overnight and were stimulated for 30 minutes with NRG1 (10 ng/ml) and laminin-1 ([…]) together, in the absence and presence of AG825 (1 μM). A, C, E, G) Western blot analyses were conducted using phospho-specific antibodies for Sch (PS518-Sch), Pak (P-Pak), and CREB (P-CREB). Total protein expression was analyzed using antibodies against Sch (Sch-C18), Pak, β1 integrin, and ErbB2. B, D, F) Quantification of the expression levels of phosphorylated forms of Sch (PS518-Sch) and Pak (P-Pak) were assessed in starved (D0.5), NRG1 and laminin-1 stimulated (NRG+Lam), and NRG1 plus laminin-1 and AG825 (N+L+A) stimulated cultures. The amount of total Sch (Sch-C18), Pak, β1 integrin, and ErbB2 proteins were measured by densitometry. GAPDH was used as a loading control. The graphs represent the average fold increase in each condition in three or more experiments. Error bars represent the SEM for each condition. […]
# P-Pak = assay: Western blot densitometry of phosphorylated Pak in subconfluent SCs
# Description: as §1, with “shown.” for “shown. GAPDH was used as a loading control for all blots. The graphs represent the average fold increase in each condition in three or more experiments. Error bars represent the SEM for each condition.”
# FIG. 4: Soluble Laminin-1 Stimulates Phosphorylation of Sch. […] Quantification of Western blots for starved (D0.5) and laminin-1 stimulated (Lam) cultures is shown. […]
# Subconfluent SC cultures grown on PLL were serum-starved overnight and were stimulated for 30 minutes with NRG1 (10 ng/ml) and laminin-1 ([…]) together, in the absence and presence of AG825 (1 μM). […] Total protein expression was analyzed using antibodies against Sch (Sch-C18), Pak, β1 integrin, and ErbB2. […] The amount of total Sch (Sch-C18), Pak, β1 integrin, and ErbB2 proteins were measured by densitometry. […]
# P-CREB = assay: Western blot of phosphorylated CREB in subconfluent SCs
# Description: as §1, with “shown.” for “shown. GAPDH was used as a loading control for all blots. The graphs represent the average fold increase in each condition in three or more experiments. Error bars represent the SEM for each condition.”
# (§3) Subconfluent SC cultures grown on PLL were serum-starved overnight and were stimulated for 30 minutes with NRG1 (10 ng/ml) and laminin-1 ([…]) together, in the absence and presence of AG825 (1 μM). […] Total protein expression was analyzed using antibodies against Sch (Sch-C18), Pak, β1 integrin, and ErbB2. B, D, F) Quantification of the expression levels of phosphorylated forms of Sch (PS518-Sch) and Pak (P-Pak) were assessed in starved (D0.5), NRG1 and laminin-1 stimulated (NRG+Lam), and NRG1 plus laminin-1 and AG825 (N+L+A) stimulated cultures. […]
# ErbB2 = assay: Western blot densitometry of total ErbB2 protein in subconfluent SCs
# Description: as §1, with “experiments.” for “experiments. Error bars represent the SEM for each condition.”
# (§4) FIG. 6: β1 integrin and ErbB2 Exist as a Complex on the Plasma Membrane. […] E) Quantification of total β1 integrin and ErbB2 expression was assessed by densitometry in starved (D0.5), NRG1 stimulated (NRG) and NRG with AG825 (N+A) stimulated cultures. […] G) Quantification of total β1 integrin and ErbB2 expression in starved (D0.5), laminin-stimulated (Lam) and laminin+AG825 (L+A) stimulated cultures is shown. […]
# β1 integrin = assay: Western blot densitometry of total β1 integrin protein in subconfluent SCs
# Description: as §2
# as §4, with “Membrane. A) Subconfluent SC cultures grown on PLL and laminin-1 were starved overnight and were stimulated with NRG1 for 30 minutes. SCs were triple-labeled with the indicated antibodies to assess protein co-localization.” for “Membrane.”
# as §3, with “cultures. The amount of total Sch (Sch-C18), Pak, β1 integrin, and ErbB2 proteins were measured by densitometry.” for “cultures.”
# Pak = assay: Western blot densitometry of total Pak protein in subconfluent SCs; conditions: NRG1 and laminin-1 30 min in the presence and absence of AG825
# Description: as §2
# as §3, with “cultures. The amount of total Sch (Sch-C18), Pak, β1 integrin, and ErbB2 proteins were measured by densitometry.” for “cultures.”
# Sch = assay: Western blot densitometry of total Sch (Sch-C18) protein in subconfluent SCs; conditions: NRG1 and laminin-1 30 min in the presence and absence of AG825
# Description: as §2
# as §3, with “cultures. The amount of total Sch (Sch-C18), Pak, β1 integrin, and ErbB2 proteins were measured by densitometry.” for “cultures.”
# [1] = AG825 in the absence of NRG1 (data not shown)
# [2] = NRG1 and laminin-1 30 min in the presence of AG825 (1 μM), compared to starved SCs
compound,measurement,setting,value
COc1cc(/C=C(\C#N)C(N)=O)cc(CSc2nc3ccccc3s2)c1O [AG825],effect on NRG1 stimulated phosphorylation of ErbB2,P-ErbB2,reduced NRG1 stimulated phosphorylation of ErbB2 significantly
same,effect on basal level of phosphorylated Sch,PS518-Sch; [1],increases basal levels
same,reduction of Sch-S518 phosphorylation in response to NRG1,PS518-Sch; NRG1 10 ng/ml 30 min with inhibitor (AG825 1 μM or PKI 14-22 50 nM),50%
same,effect on NRG1 stimulated Sch-S518 phosphorylation,PS518-Sch; NRG1 30 min with inhibitor (AG825 1 μM or PKI 14-22 50 nM),reduced
same,PS518-Sch fold increase,PS518-Sch; [2],4.6 fold
same,effect on basal level of phosphorylated Pak,P-Pak; [1],increases basal levels
same,P-Pak fold increase,P-Pak; [2],3.1 fold
same,effect on NRG1 stimulated CREB phosphorylation,P-CREB; NRG1 30 min with inhibitor (AG825 or PKI 14-22 50 nM),inhibit this phosphorylation
same,effect on CREB phosphorylation in dually stimulated SCs,P-CREB; NRG1 and laminin-1 30 min with AG825 (1 μM),inhibited phosphorylation of CREB; also recorded: eliminated
same,effect on NRG1 induced change of ErbB2 protein levels,ErbB2; NRG1 30 min with AG825 (1 μM),attenuated the reduction in ErbB2 levels; also recorded: suppressed NRG1's effect; also recorded: attenuates the loss of ErbB2 protein
same,effect on ErbB2 levels,"ErbB2; laminin-1 30 min with AG825 (1 μM), with respect to laminin-stimulated SCs",did not alter
same,effect on NRG1 induced increase of β1 integrin protein levels,β1 integrin; NRG1 30 min with AG825 (1 μM),suppressed NRG1's effect; also recorded: inhibits the increase in β1 integrin
same,effect on β1 integrin protein levels,β1 integrin; NRG1 and laminin-1 30 min in the presence and absence of AG825,not significantly changed
same,decrease in β1 integrin levels,β1 integrin; laminin-1 30 min with AG825 (1 μM),50%
same,effect on Pak protein levels,Pak,not significantly changed
same,effect on Sch protein levels,Sch,not significantly changed
